Three compounds from ChEMBL document CHEMBL4354779, “Selective modulation of the cannabinoid type 1 (CB1) receptor as an emerging platform for the treatment of neuropathic pain” (Medchemcomm, 2019) can be followed below.

In data set [1] the target is T1, Cannabinoid receptor 2 (Homo sapiens, UniProt P34972). The data set is described as follows: Inhibition of 3H-CP55,940 tracer binding to human CB2 receptor expressed in Sf9 insect cell membranes after 1 hr by scintillation counting method.
Data set [2] can be described thus: Ratio of drug uptake in C57BL/6 mouse brain to plasma at 0.5 to 27 umol/kg, sc measured after 60 mins by protein precipitation based LC-ESI-MS analysis. The format is ADME, organism-based. Particulars: 1 h.
The nature of data set [3]: Ratio of drug uptake in Sprague-Dawley rat brain to plasma at 3 umol/kg, sc measured after 60 mins by protein precipitation based LC-ESI-MS analysis. The data set is classed as ADME, organism-based. Particulars: 1 h.
In data set [4] the target is T2, Cannabinoid receptor 1 (Homo sapiens, UniProt P21554). Put plainly: Inhibition of 3H-CP55,940 tracer binding to human CB1 receptor expressed in HEK293 cell membranes after 1 hr by scintillation counting method.
Data set [5] has as its target T2, Cannabinoid receptor 1. Put plainly: Agonist activity at human CB1 receptor expressed in HEK293 cell membranes after 1 hr by scintillation counting method.
Data set [6] has as its system Rattus norvegicus. Put plainly: Antiallodynic activity in Sprague-Dawley rat model of L5/L6 spinal nerve ligation-induced neuropathic pain at 2.5 umol/kg by up-and-down method relative to control. The format is functional.
Data set [7] in a line: Brain to plasma permeability coefficient, Kp of compound in rat. The data set is classed as ADME.
In data set [8] the target is T2, Cannabinoid receptor 1. The data set is described as follows: Agonist activity at human CB1 receptor.
The target in data set [9] is T1, Cannabinoid receptor 2. Put plainly: Agonist activity at human CB2 receptor.
Data set [10] in a line: Ratio of drug uptake in Sprague-Dawley rat brain to plasma at 1 to 8 umol/kg, sc measured after 60 mins by protein precipitation based LC-ESI-MS analysis. The format is ADME, organism-based.
The subject of data set [11] is Rattus norvegicus. The data set is described as follows: Antiallodynic activity in Sprague-Dawley rat model of L5/L6 spinal nerve ligation-induced neuropathic pain at 8 umol/kg by up-and-down method relative to control. The data set is classed as functional.
A short description of data set [12]: Ratio of drug uptake in C57BL/6 mouse brain to plasma at 1 to 16 umol/kg, sc measured after 60 mins by protein precipitation based LC-ESI-MS analysis. The data set is classed as ADME, organism-based.

T2 sequence (P21554 whole entry): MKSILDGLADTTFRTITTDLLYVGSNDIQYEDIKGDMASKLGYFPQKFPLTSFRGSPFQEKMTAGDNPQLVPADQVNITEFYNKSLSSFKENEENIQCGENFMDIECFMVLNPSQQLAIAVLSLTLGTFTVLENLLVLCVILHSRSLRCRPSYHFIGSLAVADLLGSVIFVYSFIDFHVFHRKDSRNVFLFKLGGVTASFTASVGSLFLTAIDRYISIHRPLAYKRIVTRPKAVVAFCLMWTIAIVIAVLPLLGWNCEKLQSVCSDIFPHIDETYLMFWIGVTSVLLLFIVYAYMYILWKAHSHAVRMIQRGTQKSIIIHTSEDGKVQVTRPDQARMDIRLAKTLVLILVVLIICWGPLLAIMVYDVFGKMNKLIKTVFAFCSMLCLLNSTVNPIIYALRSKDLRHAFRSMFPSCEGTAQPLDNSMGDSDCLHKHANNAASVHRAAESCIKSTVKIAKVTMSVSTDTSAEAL
T1 sequence (P34972 whole entry): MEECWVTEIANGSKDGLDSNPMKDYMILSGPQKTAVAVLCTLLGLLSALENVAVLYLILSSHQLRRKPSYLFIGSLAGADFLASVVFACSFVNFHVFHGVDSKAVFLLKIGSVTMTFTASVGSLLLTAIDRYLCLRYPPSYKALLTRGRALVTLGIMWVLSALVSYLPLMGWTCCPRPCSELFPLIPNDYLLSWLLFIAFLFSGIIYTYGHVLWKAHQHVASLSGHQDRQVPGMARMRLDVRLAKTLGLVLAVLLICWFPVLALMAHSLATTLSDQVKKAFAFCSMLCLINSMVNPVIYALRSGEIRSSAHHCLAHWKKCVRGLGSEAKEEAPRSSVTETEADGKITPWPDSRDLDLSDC

On to `CCOc1ccc(Cc2nc3cc(N(C)S(=O)(=O)c4cccs4)ccc3n2CC2CCCCC2)nc1`, for which the results for the IC50 on Cannabinoid receptor 2 [1] and at Cannabinoid receptor 1 [4] were 1 nM and 3.98 nM, respectively. For the same compound, the figures for the Ratio in [2] and in data set [3] were 5% and 7%, respectively. This compound had an EC50 at Cannabinoid receptor 1 [5] of 10 nM. In the data set on Rattus norvegicus [6], this compound displayed an Activity of 100%.

Consider `CC(C)(C)c1nc2cc(NS(C)(=O)=O)ccc2n1CC1CCC(F)(F)CC1`, for which the Kp in [7] stood at 0.04. Moreover, the Ki at Cannabinoid receptor 1 [8] was 11.7 nM; on Cannabinoid receptor 2 [9], 0.871 nM.

`Cc1c(C(=O)c2cccc3ccccc23)c2cccc3c2n1C[C@H](CN1CCOCC1)O3`: the concentration ratio (Kp) at 1 h amounted to 2.2 in [10] and 4.2 in [12]. The compound further yielded an Activity in the data set with Rattus norvegicus [11] of 100%.

By IC50 is commonly meant the point on the concentration scale where inhibition reaches its midpoint. As a reminder, the EC50 is the concentration that produces a half-maximal response. The low end stands for greater potency, the high end for weaker potency. In general, Kp refers to tissue or fluid exposure divided by exposure in the circulation. By Ki is commonly meant a measure of affinity in units of concentration, obtained from inhibition or displacement.
